Measured values published in PMC11187217, “Anti-adhesive, anti-biofilm and fungicidal action of newly synthesized gemini quaternary ammonium salts” (Scientific Reports, 2024).
Where two headings read alike, the source gives them in different places. Marks after values point to notes of the source that are not given here.

Tests used:
[1] = tested on: Rhodotorula mucilaginosa ATCC 4056; test: MIC/MFC, microdilution method (modified CLSI M27); assay type: cell-based; settings: 28 °C; for Minimum inhibitory concentration (MIC) / MIC: YPG; for MIC: read-out: Minimum inhibitory concentration (MIC); for MFC: read-out: Minimum fungicidal concentration (MFC*)
Experimental: (§1) Minimum inhibitory concentration (MIC) and minimum fungicidal concentration (MFC) values were determined based on the modified CLSI M27 protocol. The study was performed using the microdilution method on sterile 96-well titration plates. The S. cerevisiae Σ1278b ATCC 42800, S. cerevisiae BY4741 ATCC 201388, C. albicans ATCC 10231, C. albicans 595/20 and R. mucilaginosa ATCC 4056 were incubated for 18 h at 28 °C (without shaking), then centrifuged (1000 rcf, 5 min), and the obtained pellet was suspended in fresh YPG medium and optical density (OD) = 0.25–0.3 was determined at a wavelength (λ) of 590 nm. Next, 10 μl of selected compounds at appropriate final concentrations (5–1280 μM) were spotted into the wells of the titration plate. Then, 80 μl of YPG medium and 10 μl of culture with a fixed OD were added. All tests were performed in triplicate. The plate was incubated at 28 °C for 24 h. The YPG medium was a negative control, while the prepared culture not treated with compounds was a positive control. […] The minimum inhibitory concentration was determined at 90% growth inhibition.
(§2) In order to determine the MFC of selected gemini surfactants, 10 μl of culture was transferred to solid YPG medium from the wells of the titration plate in which MIC was observed and from wells with the compound with higher concentrations. The spotted suspensions were incubated at 28 °C for 24 h. After incubation, inhibition of the growth of microorganisms was observed.

[2] = tested on: Candida albicans ATCC 10231; test: MIC/MFC, microdilution method (modified CLSI M27); assay type: cell-based; settings: 28 °C; for MIC / MFC: Candida albicans, ATCC10231, 24 h; for MIC: C. albicans ATCC 10231, 90% growth inhibition, read-out: Minimum inhibitory concentration (MIC); for MIC / Minimum inhibitory concentration (MIC): YPG; for MFC: C. albicans ATCC 10231, no growth on solid YPG, read-out: Minimum fungicidal concentration (MFC*); for Minimum inhibitory concentration (MIC) / Minimum fungicidal concentration (MFC*): C. albicans ATCC 10231, 24 h; for Minimum inhibitory concentration (MIC): 90% growth inhibition; for Minimum fungicidal concentration (MFC*): no growth on solid YPG
Experimental: as §1, §2

Candida albicans 595/20 = test: MIC/MFC, microdilution method (modified CLSI M27); assay type: cell-based; settings: C. albicans 595/20 (clinical isolate), 28 °C; for MIC / MFC: Candida albicans; for MIC: 595/20, 24 h, read-out: Minimum inhibitory concentration (MIC); for MIC / Minimum inhibitory concentration (MIC): 90% growth inhibition, YPG; for MFC / Minimum fungicidal concentration (MFC*): no growth on solid YPG; for MFC / Minimum inhibitory concentration (MIC) / Minimum fungicidal concentration (MFC*): 24 h; for MFC: read-out: Minimum fungicidal concentration (MFC*)
Experimental: as §1, §2

[3] = tested on: Saccharomyces cerevisiae BY4741 ATCC 201388; test: MIC/MFC, microdilution method (modified CLSI M27); assay type: cell-based; settings: for MIC: YPG, read-out: Minimum inhibitory concentration (MIC); for MIC / Minimum fungicidal concentration (MFC*): 28 °C; for Minimum fungicidal concentration (MFC*): no growth on solid YPG; for MFC: read-out: Minimum fungicidal concentration (MFC*), S. cerevisiae BY4741, no growth on solid YPG, 28 °C
Experimental: as §1, §2

[4] = tested on: Saccharomyces cerevisiae Σ1278b ATCC 42800; test: MIC/MFC, microdilution method (modified CLSI M27); assay type: cell-based; settings: S. cerevisiae Σ1278b, 28 °C; for MIC: read-out: Minimum inhibitory concentration (MIC); for MFC: read-out: Minimum fungicidal concentration (MFC*)
Experimental: as §1, §2

[5] = Critical micelle concentration (CMC), conductometric method; assay type: physicochemical; settings: double distilled water, 25 °C
Excerpt: Alkanoyl chlorides (dodecanoyl, tetradecanoyl and hexadecanoyl) were obtained from Sigma-Aldrich. Anhydrous lactic acid (99%, crystalline) was purchased from Alfal. All solvents were obtained from Avantor Performance Materials or Stanlab and used as received. Methanol (solvent) for counterions exchange reactions was analytical grade (Avantor Performance Materials) and was additionally dried over CaH2 prior synthesis. Deuterated solvents were from Sigma-Aldrich. CMC values of surfactants were measured conductometrically in double distilled water at 25 °C.
Elemental analysis was conducted utilizing Vario EL cube (Elementar, Germany) calibrated on acetanilide. Mass spectra were gain by electrospray ionization mass spectroscopy (ESI–MS) (micrOTOF-Q instrument; Bruker Daltonics, Germany). The ESI–MS aparatus was operated in the positive ion mode (calibrated with the Tunemix™ mixture; Bruker Daltonics; Germany), followed by spectra analysis by the DataAnalysis 3.4 software (Bruker Daltonics, Germany)—resolution of at least 5 ppm. Proton NMR and ^13C NMR measurements were performed on a Bruker AMX-500 spectrometer, utilizing CDCl3 or DMSO-d6 as a solvent. Proton and ^13C chemical shifts (given in ppm) were calibrated to TMS (δ = 0 ppm) as an internal reference. Krafft points were measured according to procedures described in our previous studies Lamch et al.,[82]. Values of CMC for all surfactants were measured utilizing the conductometric method for the compounds’ solutions in milliQ water in the same manner as described in Kula et al.. For all spectra: ^1H NMR, ^13C NMR and ESI–MS as well as appropriate comments see Electronic Supplementary Material.

[6] = tested on: Salmonella Typhimurium TA100; settings: for Number of colonies: ± SD
Experimental: (§3) The mutagenic potential of the tested gemini QAS was determined using the Ames test[83] using Salmonella Typhimurium TA98 and Salmonella Typhimurium TA100 with defects in histidine biosynthesis. The culture of S. Typhimurium TA98 and S. Typhimurium TA100 was incubated with shaking at 37 °C for 18 h, centrifuged (3000 rpm, 5 min) and OD = 1.5 was determined, at a wavelength of λ = 590 nm. The agar was dissolved and cooled to 42 °C. […] The media were incubated for 48 h at 37 °C. The positive control for the S. Typhimurium TA98 strain was acriflavin (100 μg/ml), and for the S. Typhimurium TA100 strain, sodium azide (15 μg/ml). The negative control was the culture without tested compound and with NaCl (0,9%). After incubation, the colonies were counted and the mutagenicity index (MR) was determined—the ratio of the number of revertants resulting from the mutagenic effect of the tested compound to the number of spontaneous revertants. Experiment was performed in three repetitions.

[7] = tested on: Salmonella Typhimurium TA98; test: Mutagenicity, Ames test; settings: for Number of colonies: ± SD
Experimental: as §3

[8] = R. mucilaginosa ATCC 4056, 90% growth inhibition, 24 h
[9] = R. mucilaginosa ATCC 4056, no growth on solid YPG, 24 h
[10] = S. cerevisiae BY4741, 90% growth inhibition, 24 h
[11] = 90% growth inhibition, YPG, 24 h
[12] = Rhodotorula mucilaginosa, ATCC4056, 24 h, R. mucilaginosa ATCC 4056, no growth on solid YPG
[13] = Saccharomyces cerevisiae, ATCC201388, 24 h, S. cerevisiae BY4741, 90% growth inhibition
[14] = Saccharomyces cerevisiae, ATCC201388, 24 h
[15] = Saccharomyces cerevisiae, ATCC42800, 24 h, 90% growth inhibition, YPG
[16] = Saccharomyces cerevisiae, ATCC42800, 24 h, no growth on solid YPG

| SMILES | Minimum inhibitory concentration (MIC) [1, 8] | MIC [1, 8] | Minimum fungicidal concentration (MFC*) [1, 9] | MIC [2] | MFC [2] | MIC (Candida albicans 595/20) | MFC (Candida albicans 595/20) | MIC [3, 10] | Minimum fungicidal concentration (MFC*) ([3]; S. cerevisiae BY4741, 24 h) | MIC [4, 11] | MFC ([4]; no growth on solid YPG, 24 h) | CMC [5] | Mutagenicity ratio (MR) ([6]; TA100, ¼ MIC) | Number of colonies ([6]; TA100, ¼ MIC) | Mutagenicity ratio (MR) ([6]; TA100, ½ MIC) | Number of colonies ([6]; TA100, ½ MIC) | Mutagenicity ratio (MR) ([7]; TA98, ¼ MIC) | Number of colonies ([7]; TA98, ¼ MIC) | Mutagenicity ratio (MR) ([7]; TA98, ½ MIC) | Number of colonies ([7]; TA98, ½ MIC) | other results |
| --- | --- | --- | --- | --- | --- | --- | --- | --- | --- | --- | --- | --- | --- | --- | --- | --- | --- | --- | --- | --- | --- |
| CCCCCCCCCCCC(=O)N(CCCN(CCC[N+](C)(C)C)C(=O)CCCCCCCCCCC)CCC[N+](C)(C)C [2xC12BrG3] | 10 10* µM | 10 µM | 10 10* µM | 640 µM | 640 µM | 1280 µM | > 1280 µM | 20 µM | 320 µM | 240 µM | 320 µM | 6.4*10^–5 mol/dm^3 | 0.95 | 265.0 ± 7.07 | 1.23 | 308.3 ± 6.87 | 0.82 | 18.7 ± 2.31 | 7.67 | 174.5 ± 9.19 | – |
| CCCCCCCCCCCC(=O)N(CCCN(CCC[N+](C)(C)C)C(=O)CCCCCCCCCCC)CCC[N+](C)(C)C [2xC12MeCO3G3, dimethyl{{3-[N-(3-{N-[3-(dimethylammonium)propyl]dodecylamido}propyl}dodecylamido}propyl}}ammonium dimethylcarbonate] | 320 320* µM | – | 320 320* µM | – | – | – | – | 160 µM | 1280 µM | 640 µM | > 1280 µM | 1.8*10^–4 mol/dm^3 | 0.87 | 243.0 ± 8.49 | 1.57 | 438.0 ± 2.83 | 1.57 | 35.8 ± 2.63 | 2.59 | 59.0 ± 2.65 | Minimum inhibitory concentration (MIC) [2]: > 1280 > 1280* µM; Minimum fungicidal concentration (MFC*) [2]: > 1280 > 1280* µM; Minimum inhibitory concentration (MIC) (Candida albicans 595/20): > 1280 > 1280* µM; Minimum fungicidal concentration (MFC*) (Candida albicans 595/20): > 1280 > 1280* µM |
| CCCCCCCCCCCCCC(=O)N(CCCN(CCC[N+](C)(C)C)C(=O)CCCCCCCCCCCCC)CCC[N+](C)(C)C [2xC14BrG3] | – | – | – | 640 µM | 1280 µM | 640 µM | > 1280 µM | – | – | – | – | 5.4*10^–6 mol/dm^3 | 0.99 | 199.0 ± 1.41 | 0.98 | 197.0 ± 0.71 | 1.08 | 29.7 ± 2.08 | 1.75 | 48.0 ± 2.83 | MIC ([1]; Rhodotorula mucilaginosa, ATCC4056, 24 h, R. mucilaginosa ATCC 4056, 90% growth inhibition): 80 µM; MFC [1, 12]: 320 µM; MIC [3, 13]: 160 µM; MFC [3, 14]: 1280 µM; MIC [4, 15]: 360 µM; MFC [4, 16]: 640 µM |
| CCCCCCCCCCCCCCCC(=O)N(CCCN(CCC[N+](C)(C)C)C(=O)CCCCCCCCCCCCCCC)CCC[N+](C)(C)C [2xC16BrG3] | > 640 640* µM | – | – | > 1280 µM | > 1280 µM | > 1280 µM | > 1280 µM | – | – | – | – | 4.6*10^–7 mol/dm^3 | – | 380.0 ± 1.37 | 1.50 | – | 1.51 | 34.3 ± 5.69 | 1.85 | 42.0 ± 5.57 | MFC [1, 12]: 640 µM; MIC [3, 13]: 320 µM; MFC [3, 14]: > 1280 µM; MIC [4, 15]: > 1280 µM; MFC [4, 16]: > 1280 µM |
| CCCCCCCCCCCCCCCC(=O)N(CCCN(CCC[N+](C)(C)C)C(=O)CCCCCCCCCCCCCCC)CCC[N+](C)(C)C [2xC16LaG3] | – | 80 µM | – | – | – | – | – | 640 µM | > 1280 µM | – | – | 3.7*10^–7 mol/dm^3 | 0.99 | 197.7 ± 1.53 | 1.06 | 213.0 ± 4.24 | 1.12 | 30.7 ± 1.15 | 1.35 | 37.0 ± 3.46 | MFC [1, 9]: 640 µM; Minimum inhibitory concentration (MIC) [2]: > 1280 > 1280* µM; Minimum fungicidal concentration (MFC*) [2]: > 1280 > 1280* µM; Minimum inhibitory concentration (MIC) (Candida albicans 595/20): > 1280 > 1280* µM; Minimum fungicidal concentration (MFC*) (Candida albicans 595/20): > 1280 > 1280* µM; Minimum inhibitory concentration (MIC) [4, 11]: > 1280 > 1280* µM; Minimum fungicidal concentration (MFC*) ([4]; no growth on solid YPG, 24 h): > 1280 > 1280* µM |
